Results taken from US20050288307A1, “Anti-viral compounds” (priority 2002, published 2005).
Read-outs that look alike come from different tables or passages of the source.

Columns and labels:
HIV-1WeJo/PBMC = assay: Anti-HIV efficacy in fresh human PBMCs, strain WeJo; format: cell-based
Description: (§1) Fresh PBMCs, seronegative for HIV and HBV, were isolated from screened donors (Interstate Blood Bank, Inc. Memphis, Tenn.). Cells were pelleted/washed 2-3 times by low speed centrifugation and re-suspension in PBS to remove contaminating platelets. […] Banded PBMCs were gently aspirated from the resulting interface and subsequently washed with PBS by low speed centrifugation. […] The cells were allowed to incubate at 37° C. […] IL-2 is included in the culture medium to maintain the cell division initiated by the PHA mitogenic stimulation. PBMCs were maintained in this with bi-weekly medium changes until used in the assay protocol. Cells were kept in culture for a maximum of two weeks before being deemed too old for use in assays and discarded. Monocytes were depleted from the culture as the result of adherence to the tissue culture flask.
(§2) Tritiated thymidine triphosphate (^3H-TTP, 80 Ci/mmol, NEN) was received in 1:1 dH2O:Ethanol at 1 mCi/mL. Poly rA:oligo dT template:primer (Pharmacia) was prepared as a stock solution, followed by aliquoting and storage at −20° C. The RT reaction buffer was prepared fresh on a daily basis. The final reaction mixture was prepared by combining ^3H-TTP, dH2O, poly rA:oligo dT stock and reaction buffer. This reaction mixture was placed in a round bottom microtiter plate and supernatant containing virus was added and mixed. The plate was incubated at 37° C. for 60 minutes. Following incubation, the reaction volume was spotted onto DE81 filter-mats (Wallac), in a sodium phosphate buffer or 2×SSC (Life Technologies). Next they were washed in distilled water, in 70% ethanol, and then dried. Incorporated radioactivity (counts per minute, CPM) was quantified using standard liquid scintillation techniques.

HIV-1RoJo/PBMC = assay: Anti-HIV efficacy in fresh human PBMCs, strain RoJo; format: cell-based
Description: as §1, §2

HIV-1 = assay: Anti-viral cell-based assays; settings: result in words
[1] = Compound cytotoxicity in PBMC assay plates (MTS cell viability); settings: human, TC50 (concentration decreasing cell viability by 50%)
CaMKII = format: biochemical; settings: Table 2
CDK9/cyclin T1 = CDK9/cyclin T1 (Homo sapiens, UniProt P50750); assay: CDK9 assay (CTD peptide substrate); format: biochemical; settings: Table 3; read-out: Average IC50 CDK9 cyclin T1
Summary of the method: (§3)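 Recombinant human CDK7/cyclin H or CDK9/cyclin T1 with biotinylated CTD peptide, 45 min at 30 °C, pH 7.2 MOPS buffer, 15 mM MgCl2, 100 μM ATP with trace [γ-32P]ATP. Avidin capture on P81 filters, phosphoric acid washes, 32P incorporation by scintillation counting.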

CDK7/cyclin H = CDK7/cyclin H (Homo sapiens, UniProt P50613); assay: CDK7 assay (CTD peptide substrate); format: biochemical; settings: Table 3; read-out: Average IC50 CDK7 cyclin H
Summary of the method: as §3

[2] = Human immunodeficiency virus 1, read-out: IC50 (concentration inhibiting virus replication by 50%), HIV-1WeJo/PBMC
[3] = Human immunodeficiency virus 1, read-out: IC90 (concentration inhibiting virus replication by 90%), HIV-1WeJo/PBMC
[4] = Human immunodeficiency virus 1, read-out: IC50 (concentration inhibiting virus replication by 50%), HIV-1RoJo/PBMC
[5] = Human immunodeficiency virus 1, read-out: IC90 (concentration inhibiting virus replication by 90%), HIV-1RoJo/PBMC
[6] = Human immunodeficiency virus 1, PBMC, read-out: IC50 (concentration inhibiting virus replication by 50%)
[7] = Human immunodeficiency virus 1, PBMC, read-out: IC90 (concentration inhibiting virus replication by 90%)

Chain of CDK9/cyclin T1 (P50750 whole entry): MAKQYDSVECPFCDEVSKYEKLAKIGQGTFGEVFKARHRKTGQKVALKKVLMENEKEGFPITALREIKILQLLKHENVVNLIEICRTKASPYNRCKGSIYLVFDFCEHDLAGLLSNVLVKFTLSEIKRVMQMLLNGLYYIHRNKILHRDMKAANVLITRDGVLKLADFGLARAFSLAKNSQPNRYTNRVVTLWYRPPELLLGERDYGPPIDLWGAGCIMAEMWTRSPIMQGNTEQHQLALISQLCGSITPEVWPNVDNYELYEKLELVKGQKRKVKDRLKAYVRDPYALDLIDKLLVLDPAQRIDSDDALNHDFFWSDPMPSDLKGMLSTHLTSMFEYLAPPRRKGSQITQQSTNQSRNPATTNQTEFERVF
Chain of CDK9/cyclin T1 (O60563 whole entry partner): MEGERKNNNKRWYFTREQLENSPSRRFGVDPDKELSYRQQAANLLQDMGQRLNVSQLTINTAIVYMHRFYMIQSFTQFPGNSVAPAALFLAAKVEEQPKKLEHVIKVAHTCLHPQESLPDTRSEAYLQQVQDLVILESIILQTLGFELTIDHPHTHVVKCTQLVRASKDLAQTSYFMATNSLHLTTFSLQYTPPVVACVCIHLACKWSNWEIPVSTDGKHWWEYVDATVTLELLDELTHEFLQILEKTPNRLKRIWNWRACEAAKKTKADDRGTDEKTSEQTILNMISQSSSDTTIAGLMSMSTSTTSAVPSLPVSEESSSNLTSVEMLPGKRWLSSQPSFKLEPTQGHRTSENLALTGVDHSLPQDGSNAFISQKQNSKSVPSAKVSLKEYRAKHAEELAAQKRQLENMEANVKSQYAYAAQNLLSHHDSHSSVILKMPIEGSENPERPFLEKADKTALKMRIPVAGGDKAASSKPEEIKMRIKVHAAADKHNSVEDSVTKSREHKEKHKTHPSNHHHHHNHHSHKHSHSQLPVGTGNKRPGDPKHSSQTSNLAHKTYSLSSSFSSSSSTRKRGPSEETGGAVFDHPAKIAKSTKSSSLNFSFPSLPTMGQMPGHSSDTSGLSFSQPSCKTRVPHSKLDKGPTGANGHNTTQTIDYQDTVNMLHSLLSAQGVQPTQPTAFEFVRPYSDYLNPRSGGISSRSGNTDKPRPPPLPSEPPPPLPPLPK
Chain of CDK7/cyclin H (P50613 whole entry): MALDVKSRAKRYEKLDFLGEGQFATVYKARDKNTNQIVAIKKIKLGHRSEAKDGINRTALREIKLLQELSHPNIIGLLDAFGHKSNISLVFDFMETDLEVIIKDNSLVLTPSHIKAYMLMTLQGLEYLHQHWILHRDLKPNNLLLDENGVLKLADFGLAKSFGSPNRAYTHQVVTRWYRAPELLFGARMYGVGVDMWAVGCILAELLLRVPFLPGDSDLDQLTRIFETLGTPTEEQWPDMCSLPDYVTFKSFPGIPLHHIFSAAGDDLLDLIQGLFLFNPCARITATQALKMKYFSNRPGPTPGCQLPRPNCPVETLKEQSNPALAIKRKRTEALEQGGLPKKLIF
Chain of CDK7/cyclin H (P51946 whole entry partner): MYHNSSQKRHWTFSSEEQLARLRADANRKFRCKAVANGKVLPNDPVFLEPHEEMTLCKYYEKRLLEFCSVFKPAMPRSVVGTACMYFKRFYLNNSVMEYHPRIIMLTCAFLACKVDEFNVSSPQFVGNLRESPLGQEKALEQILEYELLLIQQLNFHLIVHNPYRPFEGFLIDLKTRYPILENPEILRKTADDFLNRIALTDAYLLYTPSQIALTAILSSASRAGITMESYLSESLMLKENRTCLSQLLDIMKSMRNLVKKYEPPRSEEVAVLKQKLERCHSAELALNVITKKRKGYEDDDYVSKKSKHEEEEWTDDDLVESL

## Cc1nc(C)c(-c2ccnc(Nc3ccc(I)cc3)n2)s1 [Compound 21, [4-(2,4-Dimethyl-thiazol-5-yl)-pyrimidin-2-yl]-(4-iodo-phenyl)-amine]
HIV-1WeJo/PBMC; HIV-1WeJo/PBMC
  TI (therapeutic index: TC50/IC50): 2190
HIV-1WeJo/PBMC; [2]
  IC50: 29 nM
HIV-1WeJo/PBMC; [3]
  IC90: 48 nM
HIV-1RoJo/PBMC; HIV-1RoJo/PBMC
  TI (therapeutic index: TC50/IC50): 495
HIV-1RoJo/PBMC; [4]
  IC50: 62 nM
HIV-1RoJo/PBMC; [5]
  IC90: 100 nM
HIV-1
  anti-viral effectiveness as demonstrated by cell-based assays: particularly effective anti-viral agents
[1]; HIV-1RoJo/PBMC
  CC50 at 7 days: 31 µM
[1]; HIV-1WeJo/PBMC
  CC50 at 7 days: 64 µM
other
  melting point: 171 to 173 °C

## Cc1nc(N)sc1-c1ccnc(Nc2cccc([N+](=O)[O-])c2)n1 [Compound 105, [4-(2-Amino-4-methyl-thiazol-5-yl)-pyrimidin-2-yl]-(3-nitro-phenyl)-amine]
HIV-1WeJo/PBMC; [6]
  IC50: 5 nM
HIV-1WeJo/PBMC; [7]
  IC90: 14 nM
HIV-1RoJo/PBMC; [6]
  IC50: 67 nM
HIV-1RoJo/PBMC; [7]
  IC90: 350 nM
HIV-1
  anti-viral effectiveness as demonstrated by cell-based assays: particularly effective anti-viral agents
[1]; HIV-1RoJo/PBMC
  CC50 at 7 days: 1.6 µM
[1]; HIV-1WeJo/PBMC
  CC50 at 7 days: 0.2 µM
CaMKII
  IC50: > 100 µM

## Cc1nc(C)c(-c2ccnc(Nc3ccc(N(C)C)c(Cl)c3)n2)s1 [Compound 128, 2-Chloro-N^4-[4-(2,4-dimethyl-thiazol-5-yl)-pyrimidin-2-yl]-N^1,N^1-dimethyl-benzene-1,4-diamine]
CDK9/cyclin T1
  IC50: 450 nM
HIV-1WeJo/PBMC; [2]
  IC50: 860 nM
HIV-1WeJo/PBMC; [3]
  IC90: 2000 nM
HIV-1RoJo/PBMC; [4]
  IC50: 740 nM
HIV-1RoJo/PBMC; [5]
  IC90: 2700 nM
HIV-1
  anti-viral effectiveness as demonstrated by cell-based assays: particularly effective anti-viral agents
[1]; HIV-1RoJo/PBMC
  CC50 at 7 days: 4.3 µM
[1]; HIV-1WeJo/PBMC
  CC50 at 7 days: > 100 µM
CDK7/cyclin H
  IC50: 6.3 µM
